Results as given in US20250332173A1, “COMPOUNDS AND METHODS FOR MODULATING NUCLEIC ACID SPLICING” (REMIX THERAPEUTICS INC., priority 2021, published 2025).

Tested on: Target C
Test: HiBiT protein abundance assay, Target C (Promega Nano-Glo HiBiT Lytic Detection System, knock-in K562 cell line)
Type: cell-based, human
Conditions: Homo sapiens, K562, 24 h, HiBiT K562 cell line, 24 hours, top dose 10 μM; read-out: Effect on protein abundance, Target C (IC50 category)
Summary of the method: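 Protein abundance was read by Nano-Glo HiBiT lytic luminescence after 24 h compound exposure (10-point, threefold series from 10 μM final) of HiBiT knock-in K562 cells. Parental K562 served as baseline; the 50%-abundance concentration was interpolated from a four-parameter logistic fit.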

Row | Compound | IC50 [µM]
1 | Cc1cc(-c2ccc3c(c2)CCN(C2CCNCC2)C3=O)cc2cn(C)nc12 [Compound 219, 6-(2,7-dimethylindazol-5-yl)-2-(piperidin-4-yl)-3,4-dihydroisoquinolin-1-one] | > 10
2 | Cc1c(O)c(-c2ncc3c(=O)n([C@H]4CCN[C@H](C)C4)ccc3n2)cc2cn(C)nc12 [Compound 1461, 2-(6-hydroxy-2,7-dimethyl-indazol-5-yl)-6-[(2R,4S)-2-methyl-4-piperidyl]pyrido[4,3-d]pyrimidin-5-one] | 0.1 to 1
3 | Cc1cn2nc(-n3cnc4cc(N5CCNCC5)ccc4c3=O)cc(C)c2n1 [Compound 241] | 1 to 10
4 | Cc1c(O)c(-c2ncc3c(=O)n([C@H]4CC[C@H](N(C)C)CC4)ccc3n2)cc2cn(C)nc12 [Compound 1459, 6-((1r,4r)-4-(dimethylamino)cyclohexyl)-2-(6-hydroxy-2,7-dimethyl-2H-indazol-5-yl)pyrido[4,3-d]pyrimidin-5(6H)-one] | 0.1 to 1
5 | Cc1cn2cc(-c3ccc4c(=O)n(C5CCNC(C)(C)C5)cnc4c3)cc(F)c2n1 (stereo not drawn) [Compound 237] | 1 to 10
6 | Cc1cn2nc(-c3ccc4c(c3)CCN(C3CCNCC3)C4=O)nc2c(C)n1 [Compound 222, 6-[6,8-dimethyl-[1,2,4]triazolo[1,5-a]pyrazin-2-yl]-2-(piperidin-4-yl)-3,4-dihydroisoquinolin-1-one] | 1 to 10
7 | Cc1nc2c(F)cc(-c3ccc4c(c3)CCN(C3CCNCC3)C4=O)cc2s1 [Compound 226] | > 10
8 | Cc1cn2nc(-c3cc(F)c4c(=O)n(C5CCN(C)CC5)cnc4c3)cc(C)c2n1 [Compound 242] | < 0.1
9 | Cc1cn2cc(-c3ccc4c(=O)n(C5CCN(C)CC5)cnc4c3F)cc(F)c2n1 [Compound 227] | > 10
10 | Cc1cn2cc(-c3ccc4c(c3)CCN(C3CCNCC3)C4=O)ncc2n1 [Compound 224] | > 10
11 | Cc1cn2cc(-c3cc(F)c4c(=O)n(C5CCN(C)CC5)cnc4c3)cc(F)c2n1 [Compound 231, 5-fluoro-7-{8-fluoro-2-methylimidazo[1,2-a]pyridin-6-yl}-3-(1-methylpiperidin-4-yl)quinazolin-4-one] | 0.1 to 1
12 | Cc1cn2nc(-c3ccc4c(c3)CCN(C3CCNCC3)C4=O)cc2c(C)n1 [Compound 223, 6-[4,6-dimethylpyrazolo[1,5-a]pyrazin-2-yl]-2-(piperidin-4-yl)-3,4-dihydroisoquinolin-1-one] | > 10
13 | CN1CCC(n2cnc3cc(-c4ccc5nn(C)cc5c4)ccc3c2=O)CC1 [Compound 208] | > 10
14 | Cc1cn2cc(-c3cc(F)c4c(=O)n(C5CCNCC5)cnc4c3)cc(F)c2n1 [Compound 230] | 0.1 to 1
15 | Cc1cn2cc(-c3ccc4c(c3)CCN(C3CCNCC3)C4=O)nc2c(C)n1 [Compound 221, 6-[6,8-dimethylimidazo[1,2-a]pyrazin-2-yl]-2-(piperidin-4-yl)-3,4-dihydroisoquinolin-1-one] | > 10
16 | Cc1c(O)c(-c2ncc3c(=O)n([C@@H]4CCN[C@@H](C)C4)ccc3n2)cc2cn(C)nc12 [Compound 1462, 2-(6-hydroxy-2,7-dimethyl-indazol-5-yl)-6-[(2S,4R)-2-methyl-4-piperidyl]pyrido[4,3-d]pyrimidin-5-one] | 0.1 to 1
17 | Cc1cn2nc(-c3ccc4c(=O)n([C@H]5CC(C)N[C@@H](C)C5)ncc4n3)cc(C)c2n1 (stereo in doubt) [Compound 1538, 2-(2,8-dimethylimidazo[1,2-b]pyridazin-6-yl)-6-[(2S,6S)-2,6-dimethyl-4-piperidyl]pyrido[2,3-d]pyridazin-5-one] | 0.1 to 1
18 | Cc1cn2cc(-c3ccc4c(=O)n(C5CCNCC5)cnc4c3F)cc(F)c2n1 [Compound 210] | 1 to 10
19 | Cc1cc(-c2cc(F)c3c(=O)n(C4CCN(C)CC4)cnc3c2)cc2cn(C)nc12 [Compound 233] | 0.1 to 1
20 | Cc1nc2c(F)cc(-c3ccc4c(c3)CCN(C3CCNCC3)C4=O)cc2o1 [Compound 215] | 1 to 10
21 | Cc1cn2cc(-n3cnc4cc(N5CCN(C)CC5)ccc4c3=O)cc(F)c2n1 [Compound 229] | > 10
